# Measured values reported in ChEMBL document CHEMBL3879901, “Substituted isoquinolin-1(2H)-ones, and methods of use thereof” (2012).
# pEC50, pIC50: −log10 of the molar value.
# What was measured:
# [1] = Antiproliferative activity against Balb/c mouse splenic B cells preincubated for 30 mins followed by LPS or F(ab')2 donkey anti-mouse IgM and recombinant mouse IL4 stimulation measured after 72 hrs by Alamar Blue reduction assay; format: functional, cell-based
# [2] = target: Phosphatidylinositol 4,5-bisphosphate 3-kinase catalytic subunit gamma isoform (Homo sapiens, UniProt P48736); assay: Inhibition of recombinant human C-terminal His6-tagged p110gamma expressed in insect cells using phosphatidylinositol as substrate in presence of gamma-32P-ATP after 5 mins by thin layer chromatographic method
# Phosphatidylinositol 4,5-bisphosphate 3-kinase catalytic subunit gamma isoform, sequence (P48736 whole entry, canonical isoform): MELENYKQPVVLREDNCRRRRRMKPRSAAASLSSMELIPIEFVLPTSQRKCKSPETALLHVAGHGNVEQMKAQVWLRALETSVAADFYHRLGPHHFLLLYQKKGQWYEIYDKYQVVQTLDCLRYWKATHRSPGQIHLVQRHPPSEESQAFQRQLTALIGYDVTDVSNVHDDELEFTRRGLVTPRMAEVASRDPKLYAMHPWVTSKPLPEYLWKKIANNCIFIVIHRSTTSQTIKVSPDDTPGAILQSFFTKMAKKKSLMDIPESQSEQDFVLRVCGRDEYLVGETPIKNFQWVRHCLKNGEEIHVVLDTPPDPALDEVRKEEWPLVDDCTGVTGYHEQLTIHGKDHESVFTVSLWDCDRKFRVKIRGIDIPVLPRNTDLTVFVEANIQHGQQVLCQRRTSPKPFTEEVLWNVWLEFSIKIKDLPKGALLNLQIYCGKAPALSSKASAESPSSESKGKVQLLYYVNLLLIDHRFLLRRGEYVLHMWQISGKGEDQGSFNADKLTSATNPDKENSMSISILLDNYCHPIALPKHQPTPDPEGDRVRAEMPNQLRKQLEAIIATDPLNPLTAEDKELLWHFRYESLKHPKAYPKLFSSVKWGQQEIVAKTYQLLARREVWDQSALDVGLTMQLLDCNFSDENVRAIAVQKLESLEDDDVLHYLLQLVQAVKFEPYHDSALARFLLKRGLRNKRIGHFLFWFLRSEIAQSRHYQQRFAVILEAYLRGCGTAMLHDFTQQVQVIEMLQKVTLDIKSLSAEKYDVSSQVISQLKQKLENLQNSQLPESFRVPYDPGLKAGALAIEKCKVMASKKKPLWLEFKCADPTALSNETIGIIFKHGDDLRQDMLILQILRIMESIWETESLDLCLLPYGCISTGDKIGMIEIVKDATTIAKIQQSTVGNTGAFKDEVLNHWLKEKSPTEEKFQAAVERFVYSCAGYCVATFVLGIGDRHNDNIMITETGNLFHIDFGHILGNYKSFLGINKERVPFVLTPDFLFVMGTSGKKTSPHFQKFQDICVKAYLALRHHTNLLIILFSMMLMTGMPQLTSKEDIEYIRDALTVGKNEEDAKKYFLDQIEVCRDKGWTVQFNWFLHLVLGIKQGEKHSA
# [3] = target: PI3-kinase p110-delta/p85-alpha (Homo sapiens, UniProt O00329); assay: Inhibition of N-terminal His6-tagged recombinant full-length human p110delta/untagged recombinant full length p85alpha expressed in baculovirus infected Sf21 cells using phosphatidylinositol as substrate in presence of gamma-32P-ATP after 5 mins by thin layer chromatographic method
# PI3-kinase p110-delta/p85-alpha, sequence (P27986 whole entry): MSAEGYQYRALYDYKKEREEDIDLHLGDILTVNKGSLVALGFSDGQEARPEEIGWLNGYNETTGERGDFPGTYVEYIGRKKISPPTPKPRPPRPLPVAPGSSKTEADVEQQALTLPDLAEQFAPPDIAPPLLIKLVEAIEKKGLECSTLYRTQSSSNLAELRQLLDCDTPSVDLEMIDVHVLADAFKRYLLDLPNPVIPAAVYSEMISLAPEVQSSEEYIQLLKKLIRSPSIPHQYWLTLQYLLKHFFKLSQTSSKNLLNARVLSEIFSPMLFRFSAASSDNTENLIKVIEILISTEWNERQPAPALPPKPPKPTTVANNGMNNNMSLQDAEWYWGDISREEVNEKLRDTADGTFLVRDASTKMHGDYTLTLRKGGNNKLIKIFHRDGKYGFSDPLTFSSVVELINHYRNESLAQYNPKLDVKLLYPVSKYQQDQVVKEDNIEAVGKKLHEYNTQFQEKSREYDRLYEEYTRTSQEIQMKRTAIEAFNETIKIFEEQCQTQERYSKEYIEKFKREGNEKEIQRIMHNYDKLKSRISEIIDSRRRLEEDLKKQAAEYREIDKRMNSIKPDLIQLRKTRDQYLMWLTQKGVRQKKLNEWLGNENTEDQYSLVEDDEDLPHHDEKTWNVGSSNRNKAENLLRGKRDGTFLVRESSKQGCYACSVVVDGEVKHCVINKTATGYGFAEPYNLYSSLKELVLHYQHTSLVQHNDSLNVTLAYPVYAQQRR
# PI3-kinase p110-delta/p85-alpha, sequence (O00329 whole entry): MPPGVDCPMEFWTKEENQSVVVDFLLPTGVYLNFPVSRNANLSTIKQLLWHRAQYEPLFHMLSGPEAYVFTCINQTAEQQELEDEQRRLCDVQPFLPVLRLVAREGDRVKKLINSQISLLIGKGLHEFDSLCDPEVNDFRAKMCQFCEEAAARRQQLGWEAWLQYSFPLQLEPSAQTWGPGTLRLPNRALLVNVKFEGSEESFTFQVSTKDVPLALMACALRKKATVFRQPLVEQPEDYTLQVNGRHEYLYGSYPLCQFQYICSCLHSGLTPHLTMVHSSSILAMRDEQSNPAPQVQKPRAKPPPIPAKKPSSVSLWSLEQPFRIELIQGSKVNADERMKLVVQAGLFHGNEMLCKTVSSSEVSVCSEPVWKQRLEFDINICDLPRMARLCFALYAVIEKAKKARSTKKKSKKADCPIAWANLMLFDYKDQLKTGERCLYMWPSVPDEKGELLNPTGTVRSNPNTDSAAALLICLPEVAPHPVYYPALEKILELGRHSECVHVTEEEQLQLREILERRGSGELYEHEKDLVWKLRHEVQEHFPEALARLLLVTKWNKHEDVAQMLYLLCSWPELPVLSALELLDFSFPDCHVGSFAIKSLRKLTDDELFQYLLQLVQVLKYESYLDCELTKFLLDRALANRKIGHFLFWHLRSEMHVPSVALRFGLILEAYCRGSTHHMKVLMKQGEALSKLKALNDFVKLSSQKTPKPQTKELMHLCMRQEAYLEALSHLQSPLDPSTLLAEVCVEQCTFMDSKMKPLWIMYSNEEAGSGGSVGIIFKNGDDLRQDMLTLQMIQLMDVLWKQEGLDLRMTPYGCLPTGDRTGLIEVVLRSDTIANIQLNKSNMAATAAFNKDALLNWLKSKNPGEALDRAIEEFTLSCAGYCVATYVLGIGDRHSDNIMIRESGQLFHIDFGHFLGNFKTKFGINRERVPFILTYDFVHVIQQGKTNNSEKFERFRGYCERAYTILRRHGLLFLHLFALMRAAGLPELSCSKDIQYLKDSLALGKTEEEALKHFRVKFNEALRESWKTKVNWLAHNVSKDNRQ
# [4] = target: PI3-kinase p110-alpha/p85-alpha (Homo sapiens, UniProt P42336); assay: Inhibition of N-terminal His6-tagged recombinant full-length human p110alpha/untagged recombinant full length human p85alpha expressed in baculovirus infected Sf21 cells using phosphatidylinositol as substrate in presence of gamma-32P-ATP after 5 mins by thin layer chromatographic method
# PI3-kinase p110-alpha/p85-alpha, sequence (P27986 whole entry): as the sequence (P27986 whole entry) above
# PI3-kinase p110-alpha/p85-alpha, sequence (P42336 whole entry): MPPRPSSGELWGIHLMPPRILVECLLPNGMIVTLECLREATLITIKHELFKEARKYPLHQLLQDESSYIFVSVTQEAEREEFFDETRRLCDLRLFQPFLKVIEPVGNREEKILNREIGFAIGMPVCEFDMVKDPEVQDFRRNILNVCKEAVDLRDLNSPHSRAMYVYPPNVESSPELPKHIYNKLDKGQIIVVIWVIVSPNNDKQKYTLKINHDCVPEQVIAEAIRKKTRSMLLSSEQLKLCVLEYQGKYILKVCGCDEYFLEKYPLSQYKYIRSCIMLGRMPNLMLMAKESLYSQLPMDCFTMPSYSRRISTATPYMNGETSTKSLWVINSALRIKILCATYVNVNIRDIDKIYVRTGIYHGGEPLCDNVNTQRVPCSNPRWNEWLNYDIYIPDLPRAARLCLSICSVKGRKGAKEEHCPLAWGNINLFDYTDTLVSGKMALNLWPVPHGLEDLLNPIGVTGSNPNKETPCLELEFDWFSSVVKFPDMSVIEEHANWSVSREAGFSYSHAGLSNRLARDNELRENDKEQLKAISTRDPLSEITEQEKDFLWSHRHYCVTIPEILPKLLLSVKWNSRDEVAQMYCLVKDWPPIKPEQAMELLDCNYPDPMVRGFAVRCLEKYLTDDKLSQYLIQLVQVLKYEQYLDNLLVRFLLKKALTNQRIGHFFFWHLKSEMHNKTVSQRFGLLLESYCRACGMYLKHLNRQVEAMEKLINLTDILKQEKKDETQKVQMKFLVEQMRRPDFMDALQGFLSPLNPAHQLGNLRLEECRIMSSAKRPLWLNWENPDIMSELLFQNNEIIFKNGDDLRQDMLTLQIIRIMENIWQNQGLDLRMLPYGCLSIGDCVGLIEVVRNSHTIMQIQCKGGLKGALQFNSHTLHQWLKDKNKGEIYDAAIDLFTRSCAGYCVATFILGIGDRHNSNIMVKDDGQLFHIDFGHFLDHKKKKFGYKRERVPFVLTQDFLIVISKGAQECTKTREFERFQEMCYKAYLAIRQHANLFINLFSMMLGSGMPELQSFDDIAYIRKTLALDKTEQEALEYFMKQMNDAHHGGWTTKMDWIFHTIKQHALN
# PI3K p110 beta/p85 alpha = PI3K p110 beta/p85 alpha (Homo sapiens, UniProt P42338); assay: Inhibition of N-terminal His6-tagged recombinant full-length human p110beta/untagged recombinant full length p85alpha expressed in baculovirus infected Sf21 cells using phosphatidylinositol as substrate in presence of gamma-32P-ATP after 5 mins by thin layer chromatographic method
# PI3K p110 beta/p85 alpha, sequence (P27986 whole entry): as the sequence (P27986 whole entry) above
# PI3K p110 beta/p85 alpha, sequence (P42338 whole entry): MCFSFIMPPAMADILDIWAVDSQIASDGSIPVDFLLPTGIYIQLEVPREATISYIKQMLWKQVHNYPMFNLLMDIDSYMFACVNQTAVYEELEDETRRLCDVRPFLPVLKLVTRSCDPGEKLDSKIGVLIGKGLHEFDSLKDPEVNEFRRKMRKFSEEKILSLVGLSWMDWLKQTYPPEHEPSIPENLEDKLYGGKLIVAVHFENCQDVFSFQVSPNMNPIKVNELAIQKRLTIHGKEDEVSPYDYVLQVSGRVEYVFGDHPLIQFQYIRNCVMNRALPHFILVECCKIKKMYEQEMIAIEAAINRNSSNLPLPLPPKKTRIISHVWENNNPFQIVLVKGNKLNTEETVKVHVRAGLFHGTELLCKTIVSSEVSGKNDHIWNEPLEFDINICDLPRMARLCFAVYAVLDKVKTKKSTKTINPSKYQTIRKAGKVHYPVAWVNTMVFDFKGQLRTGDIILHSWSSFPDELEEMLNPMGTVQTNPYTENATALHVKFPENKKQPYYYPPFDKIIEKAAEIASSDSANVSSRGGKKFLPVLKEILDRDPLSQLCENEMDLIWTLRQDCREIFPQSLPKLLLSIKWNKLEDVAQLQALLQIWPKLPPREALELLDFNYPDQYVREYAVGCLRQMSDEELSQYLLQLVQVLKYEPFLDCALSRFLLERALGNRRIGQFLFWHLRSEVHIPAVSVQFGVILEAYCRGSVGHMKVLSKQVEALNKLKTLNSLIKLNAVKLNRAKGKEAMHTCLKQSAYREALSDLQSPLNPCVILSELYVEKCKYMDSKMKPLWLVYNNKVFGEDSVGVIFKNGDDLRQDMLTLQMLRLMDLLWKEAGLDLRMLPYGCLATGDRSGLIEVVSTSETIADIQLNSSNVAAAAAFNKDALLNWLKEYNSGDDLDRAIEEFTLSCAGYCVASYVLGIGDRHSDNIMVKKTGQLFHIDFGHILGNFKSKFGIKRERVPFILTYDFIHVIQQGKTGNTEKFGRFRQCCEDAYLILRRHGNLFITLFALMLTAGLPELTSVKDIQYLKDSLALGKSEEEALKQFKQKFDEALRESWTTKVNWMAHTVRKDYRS
pIC50 [2],pIC50 [3],pIC50 [4],pIC50 (PI3K p110 beta/p85 alpha),SMILES,pEC50 [1]
> 6.00,> 7.00,< 5.00,> 5.00,CCc1ccccc1-n1c(Cn2nc(C#C[C@@H](C)O)c3c(N)ncnc32)cc2cccc(C)c2c1=O,> 7.00
> 6.00,> 7.00,< 5.00,< 5.00,COc1ccccc1-n1c(Cn2nc(I)c3c(N)ncnc32)cc2cccc(C)c2c1=O,> 6.00
> 6.00,,< 5.00,< 5.00,Cc1ccccc1-n1c(Cn2nc(-c3cnn(CCO)c3)c3c(N)ncnc32)cc2cccc(C)c2c1=O,> 6.00
6.00 to 7.00,> 7.00,< 5.00,< 5.00,Cc1ccccc1-n1c(Cn2nc(I)c3c(N)ncnc32)cc2cccc(C)c2c1=O,6.00 to 7.00
> 6.00,> 7.00,< 5.00,< 5.00,C=Cc1nn(Cc2cc3cccc(C)c3c(=O)n2-c2ccccc2C)c2ncnc(N)c12,> 7.00
> 6.00,> 7.00,< 5.00,< 5.00,COc1ccccc1-n1c(Cn2nc(C#C[C@@H](C)O)c3c(N)ncnc32)cc2cccc(C)c2c1=O,> 6.00
> 6.00,> 5.00,< 5.00,< 5.00,Cc1ccccc1-n1c(Cn2nc(-c3ccc(F)cc3)c3c(N)ncnc32)cc2cccc(C)c2c1=O,> 5.00
> 5.00,> 7.00,< 5.00,< 5.00,Cc1ccccc1-n1c(Cn2nc(C#C[C@@H](C)O)c3c(N)ncnc32)cc2cccc(C)c2c1=O,> 7.00
> 5.00,> 7.00,< 5.00,< 5.00,Cc1cccc2cc(Cn3nc(C#C[C@@H](C)O)c4c(N)ncnc43)n(-c3ccccc3O)c(=O)c12,> 6.00
> 6.00,> 6.00,< 5.00,< 5.00,Cc1ccccc1-n1c(Cn2nc(C#CC3CC3)c3c(N)ncnc32)cc2cccc(C)c2c1=O,> 6.00
> 6.00,> 7.00,< 5.00,< 5.00,Cc1ccccc1-n1c(Cn2nc(C#CCO)c3c(N)ncnc32)cc2cccc(C)c2c1=O,> 6.00
> 6.00,> 7.00,< 5.00,< 5.00,Cc1cccc2cc(Cn3nc(C#CCO)c4c(N)ncnc43)n(-c3ccccc3F)c(=O)c12,> 6.00
< 5.00,> 5.00,< 5.00,< 5.00,Cc1ccccc1-n1c(Cn2nc(CN3CCOCC3)c3c(N)ncnc32)cc2cccc(C)c2c1=O,

# More lines, now with the values behind:
SMILES,pIC50 [2],pIC50 [3],pIC50 [4],pIC50 (PI3K p110 beta/p85 alpha),pEC50 [1]
Cc1cccc2cc(Cn3nc(-c4cccc(O)c4)c4c(N)ncnc43)n(-c3ccccc3OCCN3CCOCC3)c(=O)c12,> 6.00,> 7.00,< 5.00,< 5.00,> 7.00
Cc1cccc2cc(Cn3nc(I)c4c(N)ncnc43)n(C3CCC3)c(=O)c12,> 5.00,> 7.00,< 5.00,< 5.00,> 6.00
Cc1cccc2cc(Cn3nc(/C=C4/SC(=O)NC4=O)c4c(N)ncnc43)n(-c3ccccc3F)c(=O)c12,> 7.00,> 7.00,> 5.00,> 5.00,> 7.00
Cc1cccc2cc(Cn3nc(-c4cc(O)cc(F)c4)c4c(N)ncnc43)n(C(C)C)c(=O)c12,> 6.00,> 7.00,> 5.00,> 6.00,> 7.00
COc1cc(-c2nn(Cc3cc4cccc(C)c4c(=O)n3-c3ccccc3F)c3ncnc(N)c23)ccc1Cl,> 6.00,> 5.00,< 5.00,< 5.00,> 5.00
Cc1cccc2cc(Cn3nc(-c4cc(O)cc(F)c4)c4c(N)ncnc43)n(-c3ccccc3OCCN3CCOCC3)c(=O)c12,> 6.00,> 7.00,> 5.00,> 5.00,> 7.00
Cc1ccccc1-n1c(Cn2nc(/C=C3/SC(=O)NC3=O)c3c(N)ncnc32)cc2cccc(C)c2c1=O,> 7.00,> 7.00,> 5.00,> 5.00,> 7.00
Cc1cccc2cc(Cn3nc(C#C[C@@H](C)O)c4c(N)ncnc43)n(C3CC3)c(=O)c12,> 6.00,> 7.00,< 5.00,> 6.00,> 6.00
Cc1cccc2cc(Cn3nc(-c4cn[nH]c4)c4c(N)ncnc43)n(-c3ccccc3Cl)c(=O)c12,> 6.00,5.00 to 7.00,< 5.00,< 5.00,> 7.00
Cc1cccc2cc(Cn3nc(-c4cn[nH]c4)c4c(N)ncnc43)n(-c3ccccc3F)c(=O)c12,> 6.00,> 7.00,< 5.00,> 5.00,> 6.00
COc1cccc(-c2nn(Cc3cc4cccc(C)c4c(=O)n3-c3ccccc3C)c3ncnc(N)c23)c1,> 6.00,> 6.00,< 5.00,> 5.00,> 6.00
Cc1cccc2cc(Cn3nc(I)c4c(N)ncnc43)n(-c3ccccc3OCCN3CCOCC3)c(=O)c12,> 6.00,> 7.00,< 5.00,< 5.00,> 6.00
Cc1ccccc1-n1c(Cn2nc(-c3cc(O)cc(F)c3)c3c(N)ncnc32)cc2cccc(F)c2c1=O,> 6.00,> 7.00,< 5.00,> 5.00,> 7.00
Cc1cccc2cc(Cn3nc(-c4cccc(O)c4)c4c(N)ncnc43)n(-c3ccccc3F)c(=O)c12,> 6.00,> 7.00,< 5.00,< 5.00,> 6.00
Cc1cccc2cc(Cn3nc(-c4cn[nH]c4)c4c(N)ncnc43)n(-c3cccc(F)c3)c(=O)c12,> 6.00,> 7.00,< 5.00,< 5.00,> 7.00
Cc1ccccc1-n1c(Cn2nc(-c3ccc4oc(N)nc4c3)c3c(N)ncnc32)cc2cccc(C)c2c1=O,> 7.00,> 7.00,> 5.00,> 5.00,> 6.00
Cc1cccc2cc(Cn3nc(-c4cnn(C)c4)c4c(N)ncnc43)n(-c3ccccc3F)c(=O)c12,> 5.00,> 5.00,< 5.00,< 5.00,
Cc1ccccc1-n1c(Cn2nc(/C=C/C(=O)N3CCOCC3)c3c(N)ncnc32)cc2cccc(C)c2c1=O,< 5.00,> 6.00,< 5.00,< 5.00,
CCN(Cc1cc2cccc(C)c2c(=O)n1-c1ccccc1C)c1ncnc2[nH]cnc12,> 5.00,> 5.00,< 5.00,< 5.00,
Cc1cccc2cc(Cn3nc(/C=C4/CCNC4=O)c4c(N)ncnc43)n(-c3ccccc3F)c(=O)c12,< 5.00,> 5.00,< 5.00,< 5.00,
COc1cc(F)cc(-c2nn(Cc3cc4cccc(C)c4c(=O)n3-c3ccccc3C)c3ncnc(N)c23)c1,> 5.00,> 6.00,< 5.00,< 5.00,
